{"source": "patent US9572855B2", "about": "“Combination anti-estrogen receptor cancer therapy using MUC1 peptides and chemotherapeutics” (DANA-FARBER CANCER INSTITUTE, INC., priority 2013, dated 2017)", "key": {"MUC1-negative 293T cells": {"tested_on": "MUC1-negative 293T cells", "assay": "Cell death by trypan blue staining", "type": "cell-based, human", "conditions": "GO-203 each day for 4 days, day 4 (FIG. 8)", "excerpt": "FIG. 8. 293T cells were left untreated or treated with GO-203 each day for 4 days."}, "MCF-7/MUC1-C cells [1]": {"tested_on": "MCF-7/MUC1-C cells", "assay": "Cell death by trypan blue staining", "type": "cell-based, human", "excerpt": "(§1) (FIG. 2B) Control MCF-7/vector (diamonds) and MCF-7/MUC1-C (triangles) cells were left untreated."}, "MCF-7/vector cells [2]": {"tested_on": "MCF-7/vector cells", "assay": "Colony formation assay", "type": "cell-based, human", "conditions": "5 μM tamoxifen every other day for 7 days (FIG. 2E, left)", "quoted_text": "(FIG. 2A) Lysates from wild-type (WT) MCF-7 cells, MCF-7/vector and MCF-7/MUC1-C cells were immunoblotted with the indicated antibodies. (FIG. 2B) Control MCF-7/vector (diamonds) and MCF-7/MUC1-C (triangles) cells were left untreated. […] Cell number is expressed as the mean±SD of three replicates. […] The results (mean±SD of three replicates) are expressed as the percentage of cell death as determined by trypan blue staining on the indicated days (left) or on day 4 (right). (FIG. 2D) MCF-7/vector and MCF-7/MUC1-C cells were seeded at 500 cells/well (6-well plate), grown for 7 days and then stained with crystal violet (left). Colony number (>30 cells) is expressed as the mean±SD of three replicates (right). […] Colony number (>30 cells) is expressed as the mean±SD of three replicates. Colony formation assays. Cells were seeded in 6-well plates for 24 h and then left untreated or treated with inhibitor. After 7-14 d, the cells were washed and stained with 0.5% crystal violet in 25% methanol. Colonies >30 cells were counted in triplicate wells."}, "MCF-7/MUC1-C cells [3]": {"tested_on": "MCF-7/MUC1-C cells", "assay": "Cell growth (viable cell number); Chou-Talalay drug combination", "type": "cell-based, human", "conditions": "5 μM tamoxifen on days 0, 2 and 4 (FIG. 2B)", "excerpt": "Lysates were immunoblotted with the indicated antibodies. […] Lysates were immunoblotted with the indicated antibodies.\n(§2) (FIG. 6A) MCF-7/MUC1-C cells were infected with lentiviruses expressing the control shRNA (CshRNA) or the MUC1shRNA. Lysates from wild-type (WT) MCF-7 cells, MCF-7/MUC1-C/CshRNA and MCF-7/MUC1-C/MUC1shRNA cells were immunoblotted with the indicated antibodies. […] The results (mean±SD of three replicates) are expressed as viable cell number. […] The multiple effect-level isobologram analyses are shown for the ED50 (X), ED75 (+) and ED90 (⊙) values."}, "MCF-7/vector cells [4]": {"tested_on": "MCF-7/vector cells", "assay": "Cell growth (cell number); Chou-Talalay drug combination", "type": "cell-based, human", "conditions": "MCF-7 and MCF-7/vector cells; 5 μM tamoxifen on days 0, 2 and 4 (FIG. 2B)", "excerpt": "(§3) The multiple effect-level isobologram analyses are shown for the ED50 (X), ED75 (+) and ED90 (⊙) values."}, "BT-474/MUC1shRNA cells [5]": {"tested_on": "BT-474/MUC1shRNA cells", "assay": "Colony formation assay", "type": "cell-based, human", "conditions": "5 μM tamoxifen every other day for 14 days (FIG. 1E, right)", "protocol": "(§4) Colony formation assays. Cells were seeded in 6-well plates for 24 h and then left untreated or treated with inhibitor. After 7-14 d, the cells were washed and stained with 0.5% crystal violet in 25% methanol. Colonies >30 cells were counted in triplicate wells."}, "[6]": {"tested_on": "MCF-7/MUC1-C/MUC1shRNA cells", "assay": "Cell growth (viable cell number)", "type": "cell-based, human", "conditions": "5 μM tamoxifen days 0 and 2 (FIG. 6B)", "excerpt": "as §2"}, "BT-474/MUC1shRNA cells [7]": {"tested_on": "BT-474/MUC1shRNA cells", "assay": "Cell death by trypan blue staining", "type": "cell-based, human", "conditions": "5 μM tamoxifen on days 0 and 2; compared to BT-474/CshRNA cells (FIG. 1C, left)", "quoted_text": "Cell number is expressed as the mean±SD of three replicates. […] The results (mean±SD of three replicates) are expressed as the percentage of cell death as determined by trypan blue staining on the indicated days (left) or on day 4 (right). […] Colony number (>30 cells) is expressed as the mean±SD of three replicates (right). […] Colony number (>30 cells) is expressed as the mean±SD of three replicates."}, "BT-474/CshRNA cells [8]": {"tested_on": "BT-474/CshRNA cells", "assay": "Cell growth (viable cell number); Chou-Talalay drug combination", "type": "cell-based, human", "conditions": "BT-474 and BT-474/CshRNA cells; 5 μM tamoxifen on days 0 and 2; vs untreated (FIG. 1B)"}, "BT-474/CshRNA cells [9]": {"tested_on": "BT-474/CshRNA cells", "assay": "Colony formation assay", "type": "cell-based, human", "conditions": "5 μM tamoxifen every other day for 14 days (FIG. 1E, left)", "protocol": "(§5) FIGS. 5A-G. Tamoxifen-resistant cells are sensitive to MUC1-C inhibition. […] Lysates were immunoblotted with the indicated antibodies. (FIG. 5B) BT-474/CshRNA cells were left untreated (diamonds) or treated with 5 μM GO-203 (squares) each day for the indicated days. […] Lysates were immunoblotted with the indicated antibodies. (FIG. 5E) MCF-7/MUC1-C cells were left untreated (diamonds) or treated with 5 μM GO-203 (squares) each day for the indicated days. […] Soluble chromatin was precipitated with anti-ERα (left), anti-CBP (right) or a control IgG. The precipitates were analyzed for Rab31 promoter sequences.\nas §4"}, "MCF-7/MUC1-C cells [10]": {"tested_on": "MCF-7/MUC1-C cells", "assay": "Colony formation assay", "type": "cell-based, human", "conditions": "5 μM tamoxifen every other day for 7 days (FIG. 2E, right)", "protocol": "as §1, §5, §4"}, "BT-474/MUC1shRNA cells [11]": {"tested_on": "BT-474/MUC1shRNA cells", "conditions": "5 μM tamoxifen on days 0 and 2 (FIG. 1B)", "excerpt": "as §3"}}, "note": "Non-standard residues stand in square brackets, D forms with d. Residues, ends and D or L forms follow the SMILES beside them.", "data": [{"compound": "N=C(N)NCCC[C@@H](N)C(=O)N[C@H](CCCNC(=N)N)C(=O)N[C@H](CCCNC(=N)N)C(=O)N[C@H](CCCNC(=N)N)C(=O)N[C@H](CCCNC(=N)N)C(=O)N[C@H](CCCNC(=N)N)C(=O)N[C@H](CCCNC(=N)N)C(=O)N[C@H](CCCNC(=N)N)C(=O)N[C@H](CCCNC(=N)N)C(=O)N[C@H](CS)C(=O)N[C@H](CCC(N)=O)C(=O)N[C@H](CS)C(=O)N[C@H](CCCNC(=N)N)C(=O)N[C@H](CCCNC(=N)N)C(=O)N[C@H](CCCCN)C(=O)N[C@H](CC(N)=O)C(=O)O", "note": "[GO-203, [R]9-CQCRRKN] (H-[dR][dR][dR][dR][dR][dR][dR][dR][dR][dC][dQ][dC][dR][dR][dK][dN]-OH)", "values": [{"measurement": "survival (percentage of cell death)", "setting": "MUC1-negative 293T cells", "result": "little if any effect"}]}, {"compound": "4-hydroxytamoxifen [OHTAM]", "values": [{"measurement": "loss of viability (percentage of cell death)", "setting": "MCF-7/MUC1-C cells [1]; 10 nM OHTAM on days 0 and 2, day 4, compared to MCF-7/vector cells (FIG. 2C, right)", "result": "less sensitive"}]}, {"compound": "CC/C(=C(\\c1ccccc1)c1ccc(OCCN(C)C)cc1)c1ccccc1", "note": "[tamoxifen]", "values": [{"measurement": "formation of colonies", "setting": "MCF-7/vector cells [2]", "result": "effective in decreasing"}, {"measurement": "proliferation (cell number)", "setting": "MCF-7/MUC1-C cells [3]", "result": "little effect"}, {"measurement": "growth (cell number)", "setting": "MCF-7/vector cells [4]", "result": "inhibited"}, {"measurement": "colony formation", "setting": "BT-474/MUC1shRNA cells [5]", "result": "marked decrease"}, {"measurement": "sensitivity to tamoxifen treatment (viable cell number)", "setting": "[6]", "result": "regained sensitivity"}, {"measurement": "loss of viability (percentage of cell death)", "setting": "BT-474/MUC1shRNA cells [7]", "result": "marked loss of viability"}, {"measurement": "growth (cell number)", "setting": "BT-474/CshRNA cells [8]", "result": "unaffected"}, {"measurement": "loss of viability (percentage of cell death)", "setting": "MCF-7/MUC1-C cells [1]; 5 μM tamoxifen on days 0, 2 and 4, compared to MCF-7/vector cells (FIG. 2C, left)", "result": "less sensitive"}, {"measurement": "ability to form colonies", "setting": "BT-474/CshRNA cells [9]", "result": "little if any effect"}, {"measurement": "clonogenic survival", "setting": "MCF-7/MUC1-C cells [10]", "result": "but not clonogenic survival"}, {"measurement": "proliferation (cell number)", "setting": "BT-474/MUC1shRNA cells [11]", "result": "clearly inhibited"}]}]}
